Patent publication US20260234124A1, “Substituted Pyrazolyl-Pyridinyl Compounds as Ligand Directed Degraders of IRAK3” (Celgene Corporation, priority 2022, published 2026)

Key:
IRAK3-ePL = target: T1, IRAK3-ePL (Homo sapiens, UniProt Q9Y616); experiment: IRAK3-ePL overexpressing degradation assay; type: cell-based; details: IRAK3-ePL Lenti-X 293T CRBN/GSPT1 G575N cells, overnight incubation, top dose 10 μM
T1 construct: expressed in transfected cells; host or cells: 293T CRBN OE/GSPT1 G575N KI cells, lentiviral transduction, puromycin selection
Procedure: Example B1. IRAK3-ePL Overexpressing Degradation Assay
Stable cell lines were generated by the following protocol. 3×10^5 Lenti-X 293T cells (Clonetech) were plated in 0.8 mL of media in a 12-well plate and incubated overnight at 37° C./5% CO2. Packaging plasmid (0.4 μg, pMD), envelope plasmid (0.4 μg, pSP), and lentiviral transfer IRAK3-ePL plasmid (0.8 μg, IRAK3 sequence NM_007199.3) were mixed in 0.1 mL of Opti-MEM and incubated for 5 min. Simultaneously, 2.4 μL of Lipofectamine 2000 (Invitrogen) was added to 0.1 mL of Opti-MEM (Gibco) and incubated for 5 min. The plasmid DNA and lipofectamine were combined and the mixture was allowed to incubate for 20 min. DNA:Lipofectamine Opti-MEM mixtures were then added to previously plated cells dropwise and the cells were incubated for ~16 h at 37° C./5% CO2. Following incubation, the media was removed and 1.2 mL of fresh media was added per well. Lenti-X 293T cells were incubated for ~30 h at 37° C./5% CO2. […] Following incubation, media was removed from the Lenti-X 293T wells and passed through a […]. Part of the viral supernatant was used to transduce cells and the rest was stored at −80° C. Viruses were then added individually (0.5 mL virus) to each well of the 293T^CRBN OE/GSPT1 G575N KI cells, followed by addition of polybrene (10 mg/mL Millipore) to each well at a final concentration of 5.0 μg/mL. Cells were incubated for ~24 h at 37° C./5% CO2. After aspirating media off plates, cells were washed with DPBS, trypsinized and plated in a 10 cm dish in 15 mL of media and 1 μg/mL puromycin. Following incubation of cells for ~72 h at 37° C./5% CO2, media was aspirated off plates, and cells were washed with DPBS and trypsinized. The cells were plated in a 15 cm dish in 40 mL of media with 1.0 μg/mL Puromycin (Gibco) and incubated for ~72 h at 37° C./5% CO2. Following incubation, media was removed and cells were washed with DPBS and trypsinized. The majority of cells were resuspended in Invitrogen freezing media and stored away (~6-8×10^6 cells/vial).
IRAK3-ePL cellular dose response curve degradation assays were performed by the following protocol. Compounds to be tested were dispensed into a white 384-well tissue-culture treated plate using an acoustic liquid handler. Dilutions were prepared based on a 25 μL assay volume in duplicate 10 point 3-fold serial dilutions starting with a 10 μM dose. Negative control wells were included, which only contain 0.2% DMSO to calculate 100% signal. Positive control wells containing 30 μM Ataluren (luciferase inhibitor) were included to calculate the background signal level. All wells were backfilled to a final DMSO concentration of 0.2% to ensure DMSO uniformity across wells. IRAK3-ePL expressing cells (IRAK3-ePL Lenti-X 293T^CRBN/GSPT1 G575N) were washed, trypsinized, counted, and resuspended in fresh DMEM (Gibco) to give a cell concentration of 200,000 cells/mL. 25 μL of cells (5,000 cells/well) were dispensed into the wells of the 384-well plate prespotted with compounds in the previous step and incubated overnight at 37° C./5% CO2. Following incubation, the 384-well plate was taken out of the incubator and left at room temperature for 30 min. InCELL hunter reagent was prepared according to manufacturer's instructions (EA reagent, lysis buffer, and substrate reagent in a 1:1:4 ratio, Cat #96-0002, DiscoverX), which was added to the 384-well plate 25 μL per well. Following the incubation of the plate for 1 h at room temperature, the luminescence signal was read using a ViewLux plate reader. Data was processed and analyzed in ActivityBase software. In short, the average luminescence values of the positive control wells were subtracted from the rest of the wells for background correction, and all luminescence values were normalized to the DMSO control wells. The average value of the DMSO control wells was set to equal 100% of the relative IRAK3-ePL protein levels. […]

IRAK3 = target: T2, IRAK3 (Homo sapiens, UniProt Q9Y616); experiment: IRAK endogenous HTRF degradation assay (Total-IRAK3 HTRF kit); type: cell-based; design: IRAK Endogenous HTRF Degradation Assay; endogenous in cells; details: endogenous IRAK3, overnight incubation; % Dmax = 100 − Ymin
T2 sequence (Q9Y616 1-596): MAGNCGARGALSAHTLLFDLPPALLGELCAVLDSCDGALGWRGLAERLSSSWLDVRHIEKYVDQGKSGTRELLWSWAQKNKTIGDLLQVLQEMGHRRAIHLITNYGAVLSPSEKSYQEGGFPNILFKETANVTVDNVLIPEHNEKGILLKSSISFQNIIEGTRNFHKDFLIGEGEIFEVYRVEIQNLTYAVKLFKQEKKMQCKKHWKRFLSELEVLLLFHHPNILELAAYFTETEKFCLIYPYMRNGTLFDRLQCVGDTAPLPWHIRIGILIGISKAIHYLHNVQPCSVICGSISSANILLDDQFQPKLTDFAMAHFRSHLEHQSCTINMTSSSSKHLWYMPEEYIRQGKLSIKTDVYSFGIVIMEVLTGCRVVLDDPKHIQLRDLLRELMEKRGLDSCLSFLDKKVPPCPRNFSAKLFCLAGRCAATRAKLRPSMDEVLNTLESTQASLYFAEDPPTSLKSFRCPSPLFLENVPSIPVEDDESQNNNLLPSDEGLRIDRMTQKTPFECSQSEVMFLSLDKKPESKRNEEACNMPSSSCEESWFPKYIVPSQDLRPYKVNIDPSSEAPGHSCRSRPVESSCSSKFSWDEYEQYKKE
Procedure: Example B2. IRAK Endogenous HTRF Degradation Assay
Cells (~50k) were plated in Cisbio 96-well low volume white plates (Cisbio: cat #66PL96005). Compounds were dissolved in DMSO and a 3-fold serial dilution was performed using a TECAN D300E. Cells were incubated with the compound overnight. Total-IRAK3 HTRF kit from Cisbio was used for degradation analysis (Cisbio: 63ADK101PEH). Cryptate and D2 antibodies were diluted in Detection buffer as per manufacturers recommendation. Then 2 μL of each solution was added to 16 μL lysate. Buffer control (lysis buffer detection buffer), Cryptate control (lysis buffer+cryptate antibody+detection buffer), and Negative control (lysis buffer+cryptate antibody+D2 antibody) were made as per manufacturers recommendation. Post incubation with antibodies the HTRF signal was measured using a Perkin Elmer Envision reader and the HTRF signal was calculated using formula: (Emission at 665 nm/Emission at 615 nm)*10,000. All HTRF values were normalized to the average value of DMSO. The average value of the DMSO control wells were set to equal 100% of the relative IRAK3 protein levels. Normalized luminescence values were plotted on a graph as a function of compound concentration. Compound concentration was plotted on the x-axis and the corresponding normalized IRAK3 protein levels on the y-axis. The EC50 value (the half-maximum effective concentration) of a compound for the degradation of the IRAK3 was calculated using a four-parameter logistic model (sigmoidal dose-response model) (FIT=(A+{(B−A)/1+[(C/x)D]})) where C is the inflection point (EC50), D is the […], and A and B are the low and high limits of the fit, respectively). The Ymin was calculated by determining the lowest percentage of target protein remaining following compound treatment. Dmax was calculated from Ymin (% Dmax=100−Ymin).
Using these assays, IC50, Dmax, EC50, and DC50 values of the following compounds were determined. Dmax is defined as the maximum percent degradation achieved and DC50 is the concentration at which 50% degradation is achieved.

Dmax (IRAK3-ePL; HEK-293T, maximum percentage loss of target protein): 23%
DC50 (IRAK3-ePL; read-out: IRAK3 ePL degradation EC50): > 10 µM
Dmax (IRAK3): 34%
SMILES: Cc1ncsc1-c1ccc(CNC(=O)[C@@H]2C[C@@H](O)CN2C(=O)[C@@H](NC(=O)COCCOCCOCCOCCOCCN2CCC(n3cc(-c4cnc(N)c(O[C@H](C)c5c(Cl)ccc(F)c5Cl)c4)cn3)CC2)C(C)(C)C)cc1 [Compound 5, (2S,4R)-1-((S)-20-(4-(4-(6-amino-5-((R)-1-(2,6-dichloro-3-fluorophenyl)ethoxy)pyridin-3-yl)-1H-pyrazol-1-yl)piperidin-1-yl)-2-(tert-butyl)-4-oxo-6,9,12,15,18-pentaoxa-3-azaicosanoyl)-4-hydroxy-N-(4-(4-methylthiazol-5-yl)benzyl)pyrrolidine-2-carboxamide]
